Biological target: T1, FLT3 (Homo sapiens, UniProt P36888)
T1 sequence (P36888 27-993): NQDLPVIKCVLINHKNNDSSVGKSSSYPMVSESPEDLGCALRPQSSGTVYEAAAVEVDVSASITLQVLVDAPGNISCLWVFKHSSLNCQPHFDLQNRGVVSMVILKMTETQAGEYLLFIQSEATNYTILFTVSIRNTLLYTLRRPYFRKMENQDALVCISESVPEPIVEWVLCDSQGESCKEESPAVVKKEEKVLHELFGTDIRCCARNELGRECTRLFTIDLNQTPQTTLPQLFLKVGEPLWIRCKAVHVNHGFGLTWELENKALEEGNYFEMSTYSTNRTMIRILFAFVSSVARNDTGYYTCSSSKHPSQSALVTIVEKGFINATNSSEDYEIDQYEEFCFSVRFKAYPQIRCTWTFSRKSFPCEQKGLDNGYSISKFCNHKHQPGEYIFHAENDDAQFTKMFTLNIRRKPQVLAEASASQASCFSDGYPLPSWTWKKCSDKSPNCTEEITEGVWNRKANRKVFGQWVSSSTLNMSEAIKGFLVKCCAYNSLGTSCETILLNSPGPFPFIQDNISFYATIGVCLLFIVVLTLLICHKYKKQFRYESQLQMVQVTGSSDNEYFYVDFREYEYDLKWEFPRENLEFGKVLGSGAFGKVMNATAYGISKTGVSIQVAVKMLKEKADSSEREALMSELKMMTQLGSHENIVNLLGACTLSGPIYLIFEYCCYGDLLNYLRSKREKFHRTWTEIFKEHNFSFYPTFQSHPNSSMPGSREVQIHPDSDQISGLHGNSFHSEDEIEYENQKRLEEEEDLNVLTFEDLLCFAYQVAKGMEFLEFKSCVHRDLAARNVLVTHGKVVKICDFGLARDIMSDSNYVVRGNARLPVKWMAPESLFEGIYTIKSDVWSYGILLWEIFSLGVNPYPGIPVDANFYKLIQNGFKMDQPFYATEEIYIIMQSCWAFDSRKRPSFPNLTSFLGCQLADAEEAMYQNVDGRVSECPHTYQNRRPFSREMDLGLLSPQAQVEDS
Assay: Reaction Biology NanoBRET target engagement assay, FLT3
Assay type: cell-based
Details: transfected HEK-293 cells
From the text: The NanoBRET assay measures kinase engagement in real time in the context of the intact cell. Unlike the previously described biochemical kinase assay methodologies in Examples 26-27, the NanoBRET assay measures the binding and activity characteristics under equilibrium conditions using full-length kinases in the presence of cellular concentrations of ATP in live, uncompromised cells. As such, the assay provides a more relevant assessment of kinase potency and selectivity that would be expected to be observed in the native cellular environment, where potency is often considerably lower than that observed in the isolated biochemical assays (Vasta, J. D. et al., (2018) Cell Chem. Biol. 25, 206-214). The assay uses a Kinase-NanoLuc® fusion vector expressing a kinase protein to which a luciferase tag has been added, a cell-permeant fluorescent NanoBRET™ tracer, a NanoLuc® substrate, and an extracellular NanoLuc® inhibitor. Upon expression of the luciferase-tagged kinase, cells will produce a strong BRET signal only in the presence of the NanoBRET™ tracer. The extracellular NanoLuc® inhibitor ensures that the BRET signal observed emanates only from live cells. Because the BRET signal has tight distance constraints, addition of the test compound will decrease the BRET signal if the compound competes with the NanoBRET™ tracer for binding to the kinase domain. Under the appropriate tracer conditions established by the manufacturer, quantitative intracellular affinity and relative potency can then be determined using Mass Action model equations.
HEK-293 cells were purchased from ATCC. FuGENEHD Transfection Reagent, Kinase-NanoLucfusion plasmids, Transfection Carrier DNA, NanoBRETTracers and dilution buffer, NanoBRETNano-Glo Substrate, Extracellular NanoLucInhibitor were obtained from Promega.
Assays were conducted following Promega assay protocol with some modifications. HEK-293 Cells were transiently transfected with Kinase-NanoLucFusion Vector DNA by FuGENEHD Transfection Reagent. Testing compounds were delivered into 384 well assay plate by Echo 550 (Labcytelnc, Sunnyvale, CA). Transfected cells were harvested and mixed with NanoBRETTracer Reagent and dispensed into 384 well plates and incubated at 37° C. in 5% CO2 cell culture incubator for 1 hour. The NanoBRETNano-Glo Substrate plus Extracellular NanoLucInhibitor Solution were added into the wells of the assay plate and incubated for 2-3 minutes at room temperature. The donor emission wavelength (460 nm) and acceptor emission wavelength (600 nm) were measured in the EnVisionplate reader. The BRET Ratios were calculated. BRET Ratio=[(Acceptor sample÷Donor sample)−(Acceptor no-tracer control÷Donor no-tracer control)]. The IC50 values of compounds were calculated with Prism GraphPad program.
NanoBRET™ Target Engagement Assay Protocol
1. Transient Transfection of HEK-293 Cells NanoLuc® Fusion Vector DNA
• 1). Cultivate HEK-293 cells (70-80% confluence) appropriately prior to assay. Trypsinize and collect HEK-293 cells. • 2). Prepare lipid: DNA complexes as follows: • a. Prepare a […] solution of DNA in Opti-MEM without serum that consists of the following ratios of carrier DNA and DNA encoding NanoLuc® fusion. 9.0 µg/mL of Transfection Carrier DNA, […] of NanoLuc fusion vector DNA and 1 mL of Opti-MEM without phenol red. Mix thoroughly. • b. Add 30 l of FuGENE HD Transfection Reagent into each milliliter of DNA mixture to form lipid: DNA complex. • c. Mix by inversion 10 times. • d. Incubate at ambient temperature for 20 minutes to allow complexes to form. • 3). In a sterile, conical tube, mix 1 part of lipid: DNA complex with 20 parts of HEK-293 cells in suspension. Mix gently by inversion 5 times. • 4). Dispense cells+lipid: DNA complex into a sterile tissue culture dish and incubate for 22-24 hours. 2. Addition of Test Compounds (dry plate shooting)
Each test compound is delivered from the compound source plate to the wells of 384-well white NBS plate by Echo 550.
3. […]

Structure (SMILES)	IC50 [nM]
CC(C)(O)c1cn2c(-c3nc(N[C@H]4CNCC[C@@H]4F)c(F)cc3F)cnc2cn1 [Compound 35, 2-(3-(3,5-difluoro-6-(((3S,4S)-4-fluoropiperidin-3-yl)amino)pyridin-2-yl)imidazo[1,2-a]pyrazin-6-yl)propan-2-ol]	216
CC(O)(c1cn2c(-c3cccc(N[C@@H]4CCCNC4)n3)cnc2cn1)C(F)(F)F (single isomer, unassigned) [Compound 81]	15

Stronger by IC50, values ahead:

IC50 [nM]	Structure (SMILES)
11	CC(C)(C)c1cn2c(-c3cccc(N[C@H]4CNCC[C@@H]4F)n3)cnc2cn1 [Compound 130, 6-(6-(tert-butyl)imidazo[1,2-a]pyrazin-3-yl)-N-((3S,4S)-4-fluoropiperidin-3-yl)pyridin-2-amine]
4	F[C@H]1CCNC[C@@H]1Nc1cccc(-c2cnc3cnc(C4CC4)cn23)n1 [Compound 51, 6-(6-cyclopropylimidazo[1,2-a]pyrazin-3-yl)-N-((3S,4S)-4-fluoropiperidin-3-yl)pyridin-2-amine]
0.9	O=C1CCCN1c1cn2c(-c3nc(N[C@H]4CNCC[C@@H]4F)c(F)cc3F)cnc2cn1 [Compound 107, 1-[3-[3,5-difluoro-6-[[(3S,4S)-4-fluoro-3-piperidyl]amino]-2-pyridyl]imidazo[1,2-a]pyrazin-6-yl]pyrrolidin-2-one]

Reference: US12612410B2 (CHILDREN'S HOSPITAL MEDICAL CENTER, priority 2020, dated 2026)
